Measurements reported in patent US11633335B2, “Skin cleansing composition” (KAO CORPORATION, priority 2017, dated 2023).

Columns and labels:
[1] = Keratotic plug detergency (penetration): penetration of the sample into keratotic plugs one minute after contact, digital microscope; design: species or system human; details: contact with the sample for 1 minute; samples of Table 1
Experimental: Keratotic plugs in the nasal region were removed with “Biore Nose Pack (manufactured by Kao Corporation)”, the resulting keratotic plugs on the pack were gently taken out with tweezers. […] Consequently, the sample entered into the gap between the slide glass and the cover glass by capillary phenomenon and was brought into contact with the keratotic plugs. The contact of the keratotic plugs and the sample was recorded with a digital microscope (VHX-5000, manufactured by Keyence Corporation, magnification: 150×), and the penetration of the sample into the keratotic plugs and the collapse state of the keratotic plugs were evaluated after one minute from the contact of the keratotic plugs with the sample. The results of each evaluation are shown in the columns “Keratotic plug detergency (penetration)” and “Keratotic plug detergency (during cleansing)” in Tables. The measurements were performed at 25° C. The penetration was relatively evaluated by criteria with 11 ratings starting from the rating 1 “the sample hardly penetrated into the keratotic plug” to the rating 11 “the sample penetrated to the center of the keratotic plug”. The collapsibility by the detergency against keratotic plug was relatively evaluated by criteria with 11 ratings starting from the rating 1 “almost no change is observed in the external appearance of the keratotic plug” to the rating 11 “peeling or separation is observed in the area from the surface layer to the central portion of the keratotic plug (the initial appearance of the keratotic plug is not retained)”.

[2] = Keratotic plug detergency (during cleansing): collapse state of keratotic plugs one minute after contact with the sample; design: species or system human; details: contact with the sample for 1 minute; samples of Table 1
Experimental: Keratotic plugs in the nasal region were removed with “Biore Nose Pack (manufactured by Kao Corporation)”, the resulting keratotic plugs on the pack were gently taken out with tweezers.
The resulting keratotic plugs were placed on a slide glass and were covered with a cover glass, and 0.05 mL of a sample was dropwise added to an edge of the cover glass. Consequently, the sample entered into the gap between the slide glass and the cover glass by capillary phenomenon and was brought into contact with the keratotic plugs. The contact of the keratotic plugs and the sample was recorded with a digital microscope (VHX-5000, manufactured by Keyence Corporation, magnification: 150×), and the penetration of the sample into the keratotic plugs and the collapse state of the keratotic plugs were evaluated after one minute from the contact of the keratotic plugs with the sample. The results of each evaluation are shown in the columns “Keratotic plug detergency (penetration)” and “Keratotic plug detergency (during cleansing)” in Tables. The measurements were performed at 25° C.
The penetration was relatively evaluated by criteria with 11 ratings starting from the rating 1 “the sample hardly penetrated into the keratotic plug” to the rating 11 “the sample penetrated to the center of the keratotic plug”. The collapsibility by the detergency against keratotic plug was relatively evaluated by criteria with 11 ratings starting from the rating 1 “almost no change is observed in the external appearance of the keratotic plug” to the rating 11 “peeling or separation is observed in the area from the surface layer to the central portion of the keratotic plug (the initial appearance of the keratotic plug is not retained)”.

[3] = Keratotic plug detergency after washing with water: collapse state one minute after contact with water; design: species or system human; details: sample substituted with water; samples of Table 1
Text: The penetration was relatively evaluated by criteria with 11 ratings starting from the rating 1 “the sample hardly penetrated into the keratotic plug” to the rating 11 “the sample penetrated to the center of the keratotic plug”. The collapsibility by the detergency against keratotic plug was relatively evaluated by criteria with 11 ratings starting from the rating 1 “almost no change is observed in the external appearance of the keratotic plug” to the rating 11 “peeling or separation is observed in the area from the surface layer to the central portion of the keratotic plug (the initial appearance of the keratotic plug is not retained)”. After one minute from the contact of the keratotic plugs with the sample, Kimwipes (registered trademark) was brought into contact with an edge of the cover glass to remove the sample under the cover glass. […] The results of the evaluation are shown in the column “Keratotic plug detergency (during washing with water)” in Table. The measurements were performed at 25° C.

[4] = system: insoluble protein (seine protein); test: Evaluation of effect of suppressing protein aggregation (precipitation of insoluble protein); details: sample of Table 1
Experimental: Thirty milliliters of a sample and 0.06 g of an insoluble protein (seine protein) were placed in a 35-mL standard glass bottle, and the concentration of the insoluble protein was adjusted to 0.2 mass % (test sample). Separately, a standard sample was prepared by using water instead of the sample and adjusting the concentration of the insoluble protein to 0.2 mass %. Subsequently, the standard glass bottles were sufficiently shaken and stirred up and down (shake width: 15 cm, 20 times at a rate of 5 times for 3 seconds) in a thermostatic chamber of 25° C. and were left to stand for 3 minutes. The precipitation state of the insoluble protein was then visually verified, and the ratio of the amount of the precipitated standard sample to the amount of the precipitated test sample (the height of the precipitate in each standard glass bottle was measured as the precipitation amount), (precipitation amount of standard sample)/(precipitation amount of test sample), was calculated. A higher ratio indicates a higher effect of suppressing protein aggregation.

[5] = cited from earlier work

Compound	penetration of the sample into keratotic plugs (in words) [1]	collapse of keratotic plugs in contact with the sample, assumption of cleansing (in words) [2]	collapse of keratotic plugs during washing with water (in words) [3]	action on proteins (in words) [4]	solubility in water (in words) [5]
O=P([O-])([O-])[O-].[Na+].[Na+].[Na+] [trisodium phosphate]	the sample hardly penetrated into keratotic plugs	the collapse of the keratotic plugs did not progress	the collapse of keratotic plugs did not progress		
O=C([O-])O.[Na+] [sodium hydrogen carbonate]	the sample hardly penetrated into keratotic plugs	the collapse of the keratotic plugs did not progress	the collapse of keratotic plugs did not progress		
sodium polyoxyethylene (2) lauryl ether sulfate [POE (2) sodium lauryl sulfate]	hardly penetrated into the keratotic plugs	the collapse of the keratotic plugs did not progress		the action on proteins was strong to dissolve the proteins	
NC(CO)(CO)CO [Tris, 2-amino-2-hydroxymethyl-1,3-propanediol]					readily dissolved in water
O=P([O-])([O-])O.[Na+].[Na+] [disodium hydrogen phosphate]	the sample hardly penetrated into keratotic plugs	the collapse of the keratotic plugs did not progress	the collapse of keratotic plugs did not progress		
CC(C)(N)CO [AMP, 2-amino-2-methyl-1-propanol]	the sample penetrated into keratotic plugs		further accelerating the collapse of keratotic plugs		readily dissolved in water
